Results on three compounds are retold here after ChEMBL document CHEMBL4823243, “Synergistic induction of apoptosis in resistant head and neck carcinoma and leukemia by alkoxyamide-based histone deacetylase inhibitors” (Eur J Med Chem, 2021).

Assay [1] concerns the target T1, Histone deacetylase (Homo sapiens) (UniProt Q13547+O15379+Q9UBN7+Q92769+Q9UQL6+Q8WUI4+Q9BY41+Q96DB2+P56524+Q9UKV0+Q969S8). Kind of assay: Inhibition of HDAC in human Cal27CisR cells assessed as combination index at 0.5 uM measured in presence of 10 uM cDDP by MTT-based Chou-Talalay method. The format is cell-based.
Assay [2] has as its target T2, Protein deacetylase HDAC6 (Homo sapiens) (UniProt Q9UBN7).
T2 sequence (whole entry): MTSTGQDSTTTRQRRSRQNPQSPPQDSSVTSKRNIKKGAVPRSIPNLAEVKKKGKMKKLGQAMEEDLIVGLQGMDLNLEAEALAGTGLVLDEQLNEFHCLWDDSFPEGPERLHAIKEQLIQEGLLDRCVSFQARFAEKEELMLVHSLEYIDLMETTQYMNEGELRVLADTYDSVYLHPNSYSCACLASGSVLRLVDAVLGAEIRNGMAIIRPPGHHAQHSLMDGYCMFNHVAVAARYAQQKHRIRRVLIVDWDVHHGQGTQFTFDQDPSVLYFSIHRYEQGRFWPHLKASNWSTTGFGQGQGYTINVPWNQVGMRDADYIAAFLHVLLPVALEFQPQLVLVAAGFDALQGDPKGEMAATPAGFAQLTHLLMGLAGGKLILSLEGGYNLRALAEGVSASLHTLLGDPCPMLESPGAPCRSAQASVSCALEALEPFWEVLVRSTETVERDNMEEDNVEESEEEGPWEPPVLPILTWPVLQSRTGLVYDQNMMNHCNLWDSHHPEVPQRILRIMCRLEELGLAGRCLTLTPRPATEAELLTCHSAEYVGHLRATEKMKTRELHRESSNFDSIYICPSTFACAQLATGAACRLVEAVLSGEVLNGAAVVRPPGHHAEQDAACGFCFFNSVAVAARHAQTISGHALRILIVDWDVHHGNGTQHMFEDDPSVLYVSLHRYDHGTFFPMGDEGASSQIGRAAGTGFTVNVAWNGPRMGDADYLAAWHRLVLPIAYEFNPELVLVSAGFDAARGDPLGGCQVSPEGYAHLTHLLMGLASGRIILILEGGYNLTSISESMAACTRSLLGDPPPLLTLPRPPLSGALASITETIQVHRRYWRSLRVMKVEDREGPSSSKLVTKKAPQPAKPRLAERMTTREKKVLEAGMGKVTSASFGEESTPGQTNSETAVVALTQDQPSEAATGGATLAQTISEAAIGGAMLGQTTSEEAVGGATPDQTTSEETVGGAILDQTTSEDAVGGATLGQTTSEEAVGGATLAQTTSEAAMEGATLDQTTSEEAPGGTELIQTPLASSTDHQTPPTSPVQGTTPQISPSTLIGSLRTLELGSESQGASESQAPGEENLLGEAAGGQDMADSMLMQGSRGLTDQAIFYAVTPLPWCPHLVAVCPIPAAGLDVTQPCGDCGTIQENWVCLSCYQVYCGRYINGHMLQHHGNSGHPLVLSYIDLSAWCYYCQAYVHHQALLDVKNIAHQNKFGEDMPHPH
Kind of assay: Inhibition of HDAC6 in human CAL-27 cells assessed as accumulation of acetylated alpha-tubulin at 5 uM for 24 hrs by Western blot analysis. The format is cell-based.

Assay [3] relates to A2780. Kind of assay: Antiproliferative activity against human A2780 cells assessed as reduction in cell viability after 72 hrs by MTT assay. Conditions: A2780, 72 h. The format is functional, cell-based. (Tetrazolium assays rely on reduction of a dye to a coloured formazan, in cell work by metabolically active cells.)
Assay [4] addresses T3, Histone deacetylase 8 (Homo sapiens, UniProt Q9BY41).
T3 sequence (Q9BY41 whole entry): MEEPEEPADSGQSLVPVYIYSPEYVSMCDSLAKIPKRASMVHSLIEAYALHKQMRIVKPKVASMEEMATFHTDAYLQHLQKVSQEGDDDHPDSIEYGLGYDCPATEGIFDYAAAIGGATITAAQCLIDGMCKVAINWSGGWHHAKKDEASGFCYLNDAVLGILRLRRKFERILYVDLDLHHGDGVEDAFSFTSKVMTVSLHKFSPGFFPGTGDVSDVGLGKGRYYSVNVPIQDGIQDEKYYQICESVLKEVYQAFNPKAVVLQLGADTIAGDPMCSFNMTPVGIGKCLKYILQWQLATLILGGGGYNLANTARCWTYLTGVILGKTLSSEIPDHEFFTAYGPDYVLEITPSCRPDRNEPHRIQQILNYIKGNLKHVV
Kind of assay: Inhibition of recombinant human C-terminal His-fusion tagged/N-terminal Strep2 tagged HDAC8 (1 to 377 residues) expressed in insect cells using Boc-Lys(TFA)-AMC as substrate preincubated for 5 mins followed by substrate addition measured after 90 mins by fluorimetry.

Assay [5] addresses Histone deacetylase. Kind of assay: Inhibition of HDAC in human A2780 cells using Boc-Lys (acetyl)-AMC as substrate preincubated for 18 hrs followed by susbtrate addition and measured after 3 hrs by fluorescence microplate reader assay. The format is cell-based.
In assay [6] the test system is CAL-27. Nature of the assay: Induction of DNA damage in human CAL-27 cells assessed as increase in gamma H2AX phosphorylation pretreated for 24 hrs followed by cisplatin treatment and further incubated for 18 hrs measured by Western blot analysis. The class given is functional, cell-based. The note with it: time 42.0 hrs. (In western blotting, separated proteins are transferred to a membrane and probed.)

For assay [7], the system named is CAL-27. Nature of the assay: Induction of DNA damage in human CAL-27 cells assessed as upregulation of gamma H2AX in presence cisplatin measured by Western blot analysis. The format is functional, cell-based.
For assay [8], the target named is T1, Histone deacetylase (Homo sapiens). Nature of the assay: Inhibition of HDAC in human Cal27CisR cells assessed as combination index at 0.5 uM measured in presence of 50 uM cDDP by MTT-based Chou-Talalay method. The format is cell-based.
The subject of assay [9] is Cal27CisR. Nature of the assay: Induction of DNA damage human Cal27CisR cells assessed as upregulation of gamma H2AX in presence cisplatin measured by Western blot analysis. The class given is functional.
For assay [10], the target named is Histone deacetylase. Kind of assay: Inhibition of HDAC in human CAL-27 cells using Boc-Lys (acetyl)-AMC as substrate preincubated for 18 hrs followed by susbtrate addition and measured after 3 hrs by fluorescence microplate reader assay. The class given is cell-based.
In assay [11] the test system is Cal27CisR. Nature of the assay: Induction of DNA damage in human Cal27CisR cells assessed as increase in gamma H2AX phosphorylation pretreated for 24 hrs followed by cisplatin treatment and further incubated for 18 hrs measured by Western blot analysis. The class given is functional, cell-based. The note with it: time 42.0 hrs.
Assay [12] deals with Histone deacetylase 4 (Homo sapiens, UniProt P56524). Kind of assay: Inhibition of recombinant human N-terminal GST-fusion tagged/C-terminal GST-tagged HDAC4 (627 to 1084 residues) expressed in baculovirus infected insect cells using Boc-Lys(TFA)-AMC as substrate preincubated for 5 mins followed by substrate addition measured after 90 mins by fluorimetry.
Histone deacetylase 4, sequence (P56524 whole entry, the tested form may be a part): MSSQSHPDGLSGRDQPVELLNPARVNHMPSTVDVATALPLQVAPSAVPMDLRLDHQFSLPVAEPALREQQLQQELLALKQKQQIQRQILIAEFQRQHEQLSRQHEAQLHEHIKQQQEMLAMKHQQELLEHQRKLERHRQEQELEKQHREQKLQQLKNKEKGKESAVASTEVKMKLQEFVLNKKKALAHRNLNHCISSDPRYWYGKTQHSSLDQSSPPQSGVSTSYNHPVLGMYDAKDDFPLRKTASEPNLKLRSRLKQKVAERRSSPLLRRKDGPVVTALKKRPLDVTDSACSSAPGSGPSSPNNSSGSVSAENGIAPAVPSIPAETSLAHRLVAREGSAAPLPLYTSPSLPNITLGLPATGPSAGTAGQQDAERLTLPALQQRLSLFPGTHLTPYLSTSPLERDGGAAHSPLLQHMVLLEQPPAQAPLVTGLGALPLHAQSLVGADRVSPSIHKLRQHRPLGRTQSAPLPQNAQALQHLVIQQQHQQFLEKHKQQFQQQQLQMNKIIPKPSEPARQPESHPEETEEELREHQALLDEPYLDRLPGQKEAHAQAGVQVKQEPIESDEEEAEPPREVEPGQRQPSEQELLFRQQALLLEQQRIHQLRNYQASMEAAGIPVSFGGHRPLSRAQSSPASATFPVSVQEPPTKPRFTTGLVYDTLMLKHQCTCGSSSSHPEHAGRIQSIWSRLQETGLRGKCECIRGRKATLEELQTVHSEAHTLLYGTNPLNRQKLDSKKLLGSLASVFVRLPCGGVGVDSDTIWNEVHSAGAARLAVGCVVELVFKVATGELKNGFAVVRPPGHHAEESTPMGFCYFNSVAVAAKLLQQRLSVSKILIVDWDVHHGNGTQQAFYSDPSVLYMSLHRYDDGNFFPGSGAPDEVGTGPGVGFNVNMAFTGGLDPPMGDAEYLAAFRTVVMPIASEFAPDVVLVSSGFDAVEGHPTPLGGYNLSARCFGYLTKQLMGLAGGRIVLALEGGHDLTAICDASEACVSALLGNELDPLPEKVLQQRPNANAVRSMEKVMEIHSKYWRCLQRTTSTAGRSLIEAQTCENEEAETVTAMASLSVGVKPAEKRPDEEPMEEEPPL
For assay [13], the target named is T4, Protein deacetylase HDAC6 (Homo sapiens, UniProt Q9UBN7).
T4 sequence (Q9UBN7 whole entry): T2 sequence (whole entry)
Kind of assay: Inhibition of recombinant human N-terminal GST-tagged HDAC6 (1 to 1215 residues) expressed in baculovirus infected insect cells using Boc-Lys(Ac)-AMC as substrate preincubated for 5 mins followed by substrate addition measured after 90 mins by fluorimetry.

In assay [14] the test system is CAL-27. Kind of assay: Antiproliferative activity against human CAL-27 cells assessed as reduction in cell viability after 72 hrs by MTT assay. The class given is functional, cell-based. Conditions: CAL-27, 72 h.
The target of assay [15] is Class 1 histone deacetylase (Homo sapiens) (UniProt Q13547+O15379+Q92769+Q9BY41). Nature of the assay: Inhibition of class-1 HDAC in human CAL-27 cells assessed as induction of histone H-3 acetylation at 5 uM for 24 hrs by Western blot analysis. The class given is cell-based.

Calls of active or inactive are those of the source. No cut-off for these calls is given here.

For the compound `O=C(CCCCCONC(=O)c1nccc2ccccc12)NO`, the CI was 1.11 in assay [1] and 0.97 in assay [8]. In addition, in assay [2], the inhibition entry was “Active”. Also, the IC50 (commonly the point on the concentration scale where inhibition reaches its midpoint) in [3] was 19.9 µM; in assay [4], 12.4 µM; in [5] it was 0.25 µM; in [10], 1.5 µM; in assay [12], greater than 100 µM; in assay [13], 173 nM. Moreover, the IC50 in assay [14] came out at 2120 nM. Further, the outcome in assay [6], in assay [7], in assay [9], in assay [11] and in assay [15] was Active.
For the compound `O=C(CCCCCONC(=O)c1ccc2ccccc2n1)NO`, the values for the CI in assay [1] and in [8] were 0.13 and 0.5, respectively. Also, in [2], the inhibition result is “Active”. For the same compound, the IC50 in assay [3] is 0.8 µM; in [4] it was 9.78 µM; in assay [5], 0.48 µM; in assay [10], 0.18 µM; in assay [12], greater than 100 µM; in assay [13] it was 25 nM. In addition, in [14], the half-maximal inhibitory concentration (IC50) came to 250 nM. Besides, the result in assay [6], in assay [7], in assay [9], in assay [11] and in assay [15] was Active.
On to `O=C(CCCCCONC(=O)c1cc2ccccc2[nH]1)NO`, for which the CI in assay [1] was 0.27; in assay [8], 0.47. Besides, in assay [2], the inhibition entry was “Active”. In addition, the half-inhibitory concentration (IC50) in assay [3] came to 4.05 µM; in [4], 10.3 µM; in assay [5] it was 0.67 µM; in [10] it was 0.12 µM; in [12] it was 55.7 µM; in [13] it was 13 nM. For the same compound, the concentration for half-maximal inhibition (IC50) in [14] came to 300 nM. Moreover, the result in [6], in assay [7], in assay [9], in [11] and in assay [15] was Active.
